24 compounds from patent US9000186B2, “Ring-fused heterocyclic derivative” (Kyowa Hakko Kirin Co., Ltd., priority 2011, dated 2015) can be followed below.

Each structure is given as a SMILES string.

In the first assay the target is T1, human Cav3.2 T-type Ca2+ channel (Homo sapiens, UniProt O95180).
T1 construct: expressed in transfected cells; host or cells: KJMGER8 cells (Namalwa cell-derived cell line)
T1 sequence (O95180 whole entry): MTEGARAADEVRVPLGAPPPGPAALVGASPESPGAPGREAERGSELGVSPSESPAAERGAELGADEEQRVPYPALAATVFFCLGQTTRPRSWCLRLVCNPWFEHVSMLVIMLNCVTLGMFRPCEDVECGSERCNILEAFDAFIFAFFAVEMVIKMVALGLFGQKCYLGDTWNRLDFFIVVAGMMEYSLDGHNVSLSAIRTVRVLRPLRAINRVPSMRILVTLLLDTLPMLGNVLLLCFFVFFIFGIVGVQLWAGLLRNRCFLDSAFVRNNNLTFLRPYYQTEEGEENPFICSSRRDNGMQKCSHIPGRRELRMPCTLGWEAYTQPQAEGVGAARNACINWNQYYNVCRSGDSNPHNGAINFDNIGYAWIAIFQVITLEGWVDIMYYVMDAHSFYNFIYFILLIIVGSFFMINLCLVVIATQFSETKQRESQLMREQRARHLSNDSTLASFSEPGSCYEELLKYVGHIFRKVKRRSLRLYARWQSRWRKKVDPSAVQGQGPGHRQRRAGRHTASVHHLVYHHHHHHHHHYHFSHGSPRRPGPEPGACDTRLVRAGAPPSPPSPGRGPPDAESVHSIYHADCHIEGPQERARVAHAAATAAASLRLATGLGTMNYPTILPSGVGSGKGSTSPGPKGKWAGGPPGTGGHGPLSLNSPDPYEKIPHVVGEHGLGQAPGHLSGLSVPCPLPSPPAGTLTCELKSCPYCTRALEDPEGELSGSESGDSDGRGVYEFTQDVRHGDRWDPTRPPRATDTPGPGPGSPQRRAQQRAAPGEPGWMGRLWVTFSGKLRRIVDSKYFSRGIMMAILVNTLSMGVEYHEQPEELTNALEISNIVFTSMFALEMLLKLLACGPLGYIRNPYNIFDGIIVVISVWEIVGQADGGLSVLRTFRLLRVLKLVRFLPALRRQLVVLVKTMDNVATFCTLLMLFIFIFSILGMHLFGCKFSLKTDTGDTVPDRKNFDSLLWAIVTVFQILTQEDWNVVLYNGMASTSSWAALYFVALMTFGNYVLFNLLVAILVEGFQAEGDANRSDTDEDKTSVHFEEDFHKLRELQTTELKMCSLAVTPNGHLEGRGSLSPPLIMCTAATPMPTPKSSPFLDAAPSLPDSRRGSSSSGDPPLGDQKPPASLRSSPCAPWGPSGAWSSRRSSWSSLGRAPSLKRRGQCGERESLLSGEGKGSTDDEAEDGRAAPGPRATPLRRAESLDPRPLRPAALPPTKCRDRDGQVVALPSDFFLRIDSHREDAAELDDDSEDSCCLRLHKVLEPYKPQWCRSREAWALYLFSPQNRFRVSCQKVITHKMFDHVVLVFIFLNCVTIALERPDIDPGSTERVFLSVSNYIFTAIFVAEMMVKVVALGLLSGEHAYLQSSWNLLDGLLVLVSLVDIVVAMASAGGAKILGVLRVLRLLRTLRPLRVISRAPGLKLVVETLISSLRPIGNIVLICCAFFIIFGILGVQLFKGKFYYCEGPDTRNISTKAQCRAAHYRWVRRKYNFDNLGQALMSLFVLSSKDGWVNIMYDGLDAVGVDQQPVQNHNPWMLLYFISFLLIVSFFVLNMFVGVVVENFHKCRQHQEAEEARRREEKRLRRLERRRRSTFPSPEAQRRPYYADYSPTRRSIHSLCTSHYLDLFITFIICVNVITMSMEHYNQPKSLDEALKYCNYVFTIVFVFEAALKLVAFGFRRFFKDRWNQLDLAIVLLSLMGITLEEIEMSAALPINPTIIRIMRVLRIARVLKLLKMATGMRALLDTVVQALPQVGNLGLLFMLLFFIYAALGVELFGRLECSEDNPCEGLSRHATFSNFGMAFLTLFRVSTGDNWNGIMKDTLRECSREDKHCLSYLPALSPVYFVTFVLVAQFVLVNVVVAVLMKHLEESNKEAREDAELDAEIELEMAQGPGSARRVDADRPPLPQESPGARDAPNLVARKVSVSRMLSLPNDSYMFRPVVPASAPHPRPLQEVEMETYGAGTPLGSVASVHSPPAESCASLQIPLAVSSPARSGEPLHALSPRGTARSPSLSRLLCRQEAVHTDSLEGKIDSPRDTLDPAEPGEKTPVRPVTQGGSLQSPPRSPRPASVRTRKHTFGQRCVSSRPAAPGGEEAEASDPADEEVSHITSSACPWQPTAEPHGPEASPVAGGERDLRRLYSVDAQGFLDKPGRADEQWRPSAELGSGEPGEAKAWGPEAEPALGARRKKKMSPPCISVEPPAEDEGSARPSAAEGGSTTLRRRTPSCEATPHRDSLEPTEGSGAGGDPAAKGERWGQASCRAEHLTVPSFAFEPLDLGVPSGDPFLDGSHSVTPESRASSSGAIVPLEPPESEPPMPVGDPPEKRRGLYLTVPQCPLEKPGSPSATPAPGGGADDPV
Put plainly: Inhibitory effect for intracellular calcium response via Cav3.2 T-type Ca2+ channels (FLIPR Calcium 3 Assay Kit). Type of assay: cell-based.
Details: not given
Consider `CCN(CC)C(=O)c1ccn2c(SC3CCCCC3)c(C(C)C)nc2c1` [Compound 12, 3-Cyclohexylthio-N,N-diethyl-2-isopropylimidazo[1,2-a]pyridine-7-carboxamide], for which the half-inhibitory concentration (IC50) was less than 100 nM. Take `CC(C)(C)c1nc2cc(C(=O)NCc3ccccc3)ccn2c1CC1CCCCC1` [Compound 16, N-Benzyl-2-tert-butyl-3-cyclohexylmethylimidazo[1,2-a]pyridine-7-carboxamide]: the IC50 is less than 100 nM. Still for that read-out and setting: as for `CC(C)(C)c1nc2cc(C(=O)NNC(=O)c3ccccc3)ccn2c1CC1CCCCC1` [Compound 17, N′-Benzoyl-2-tert-butyl-3-cyclohexylmethylimidazo[1,2-a]pyridine-7-carbohydrazide], the figure is less than 100 nM; as for `CC(C)CC(=O)N(C)c1ccn2c(CC3CCCCC3)c(C(C)(C)C)nc2c1` [Compound 19, N-(2-tert-Butyl-3-cyclohexylmethylimidazo[1,2-a]pyridin-7-yl)-N,3-dimethylbutanamide], less than 100 nM. `CN(C)S(=O)(=O)N(C)c1ccn2c(CC3CCCCC3)c(C(C)(C)C)nc2c1` [Compound 20, N-(2-tert-Butyl-3-cyclohexylmethylimidazo[1,2-a]pyridin-7-yl)-N,N′,N′-trimethylsulfamide]: the half-maximal inhibitory concentration (IC50) was less than 100 nM. Turning to `CC(C)c1nc2cc(C(=O)Nc3nccs3)ccn2c1COC1CCCCC1` [Compound 25, 3-Cyclohexyloxymethyl-2-isopropyl-N-(thiazol-2-yl)imidazo[1,2-a]pyridine-7-carboxamide], the IC50 was less than 100 nM. The same measure, in the same setting: as for `CC(C)c1nc2cc(C(=O)Nc3ccncc3)ccn2c1Cc1ccccc1` [Compound 37, 3-Benzyl-2-isopropyl-N-(pyridin-4-yl)imidazo[1,2-a]pyridine-7-carboxamide], the figure is less than 100 nM; as for `Cc1cn2c(S(=O)(=O)C3CCCCC3)c(C(C)C)nc2cc1C(=O)Nc1ccncc1` [Compound 39, 3-Cyclohexylsulfonyl-2-isopropyl-6-methyl-N-(pyridin-4-yl)imidazo[1,2-a]pyridine-7-carboxamide], less than 100 nM; as for `CC(C)c1nc2cc(C(=O)Nc3ccccc3)ccn2c1SC1CCCCC1` [Compound 40, 3-Cyclohexylthio-2-isopropyl-N-phenylimidazo[1,2-a]pyridine-7-carboxamide], less than 100 nM. On the same count and under the same terms, as for `Cc1c(C(=O)Nc2ccncc2)ccn2c(CC3CCCCC3)c(C(C)(C)C)nc12` [Compound 42, 2-tert-Butyl-3-cyclohexylmethyl-8-methyl-N-(pyridin-4-yl)imidazo[1,2-a]pyridine-7-carboxamide], the figure is less than 100 nM; as for `CC1(C)COCCC1NC(=O)c1ccn2c(CC3CCC(F)(F)CC3)c(C(F)(F)F)nc2c1` (stereo not drawn) [Compound 53, 3-(4,4-Difluorocyclohexylmethyl)-N-(3,3-dimethyltetrahydro-2H-pyran-4-yl)-2-trifluoromethylimidazo[1,2-a]pyridine-7-carboxamide], less than 100 nM. `COCC1(CNC(=O)c2ccn3c(CC4CCC(F)(F)CC4)c(C(F)(F)F)nc3c2)CCOCC1` [Compound 59, 3-(4,4-Difluorocyclohexylmethyl)-N-[{4-(methoxymethyl)tetrahydro-2H-pyran-4-yl}methyl]-2-trifluoromethylimidazo[1,2-a]pyridine-7-carboxamide]: the IC50 is less than 100 nM.

As for `O=C(NC1CCOCC1)c1ccn2c(CC3CCC(F)(F)CC3)c(C3(C(F)(F)F)CC3)nc2c1` [Compound 65, 3-(4,4-Difluorocyclohexylmethyl)-N-(tetrahydro-2H-pyran-4-yl)-2-(1-trifluoromethylcyclopropyl)imidazo[1,2-a]pyridine-7-carboxamide], the half-maximal inhibitory concentration (IC50) was less than 100 nM. The same measure, in the same setting: as for `Cc1cc(C(=O)Nc2ccccc2N)cc2nc(C(F)(F)F)c(CC3CCC(F)(F)CC3)n12` [Compound 68, N-(2-Aminophenyl)-3-(4,4-difluorocyclohexylmethyl)-5-methyl-2-trifluoromethylimidazo[1,2-a]pyridine-7-carboxamide], the figure is less than 100 nM; as for `Cc1cc(C(=O)NC2CCC(=O)CC2)cc2nc(C(F)(F)F)c(CC3CCC(F)(F)CC3)n12` [Compound 71, 3-(4,4-Difluorocyclohexylmethyl)-5-methyl-N-(4-oxocyclohexyl)-2-trifluoromethylimidazo[1,2-a]pyridine-7-carboxamide], less than 100 nM; as for `Cc1cc(C(=O)NC2CCSCC2)cc2nc(C(F)(F)F)c(CC3CCC(F)(F)CC3)n12` [Compound 74, 3-(4,4-Difluorocyclohexylmethyl)-5-methyl-N-(tetrahydro-2H-thiopyran-4-yl)-2-trifluoromethylimidazo[1,2-a]pyridine-7-carboxamide], less than 100 nM. For the compound `Cc1cc(C(=O)NCC2(CO)CCOCC2)cc2nc(C(F)(F)F)c(CC3CCC(F)(F)CC3)n12` [Compound 85, 3-(4,4-Difluorocyclohexylmethyl)-N-[{4-(hydroxymethyl)tetrahydro-2H-pyran-4-yl}methyl]-5-methyl-2-trifluoromethylimidazo[1,2-a]pyridine-7-carboxamide], the IC50 was less than 100 nM. The same measure, in the same setting: then `Cc1cc(C(=O)NCC2(F)CCOCC2)cc2nc(C(F)(F)F)c(CC3CCC(F)(F)CC3)n12` [Compound 87, 3-(4,4-Difluorocyclohexylmethyl)-N-{(4-fluorotetrahydro-2H-pyran-4-yl)methyl}-5-methyl-2-trifluoromethylimidazo[1,2-a]pyridine-7-carboxamide], with less than 100 nM.

The same assay, now with this note: human Cav3.2-expressing KJMGER8 cells (Namalwa-derived); calcium response induced by 5 mmol/L CaCl2; normalised to 3 μmol/L mibefradil; read-out: IC50 for the human Cav3.2 T-type Ca2+ current.
As for `CC(C)c1nc2cc(NC(=O)c3ccccc3)ccn2c1COC1CCCCC1` [Compound 28, N-(3-Cyclohexyloxymethyl-2-isopropylimidazo[1,2-a]pyridin-7-yl)benzamide], the IC50 is less than 100 nM.

Regarding `CC(C)c1nc2cc(-c3nc4ccccc4[nH]3)ccn2c1COC1CCCCC1` [Compound 33, 2-(3-Cyclohexyloxymethyl-2-isopropylimidazo[1,2-a]pyridin-7-yl)-1H-benzimidazole], the half-maximal inhibitory concentration (IC50) was less than 100 nM. Still for that read-out and setting: then `CS(=O)(=O)c1cccc(NC(=O)c2ccn3c(CC4CCC(F)(F)CC4)c(C(F)(F)F)nc3c2)c1` [Compound 48, 3-(4,4-Difluorocyclohexylmethyl)-N-(3-methanesulfonylphenyl)-2-trifluoromethylimidazo[1,2-a]pyridine-7-carboxamide], with less than 100 nM; and `CCC1(CNC(=O)c2ccn3c(CC4CCC(F)(F)CC4)c(C(F)(F)F)nc3c2)COC1` [Compound 56, 3-(4,4-Difluorocyclohexylmethyl)-N-{(3-ethyloxetan-3-yl)methyl}-2-trifluoromethylimidazo[1,2-a]pyridine-7-carboxamide], with less than 100 nM; and `CC1(CNC(=O)c2ccn3c(CC4CCC(F)(F)CC4)c(C(F)(F)F)nc3c2)CCCO1` (stereo not drawn) [Compound 57, 3-(4,4-Difluorocyclohexylmethyl)-N-{(2-methyltetrahydrofuran-2-yl)methyl}-2-trifluoromethylimidazo[1,2-a]pyridine-7-carboxamide], with less than 100 nM. On the same count and under the same terms, as for `COC1(CNC(=O)c2cc(C)n3c(CC4CCC(F)(F)CC4)c(C(F)(F)F)nc3c2)CCOCC1` [Compound 86, 3-(4,4-Difluorocyclohexylmethyl)-N-{(4-methoxytetrahydro-2H-pyran-4-yl)methyl}-5-methyl-2-trifluoromethylimidazo[1,2-a]pyridine-7-carboxamide], the figure is less than 100 nM.
